# In US11136370B2, “Compositions and methods for thrombin generation assay” (The Scripps Research Institute, priority 2016, dated 2021):
# Entries after “also recorded” stand apart in the source; their conditions may differ.
# Legend:
# [1] = target: T1, ternary TF-FVIIa-FXa complex (Homo sapiens, UniProt P00742); assay: FV activation (FVa generation, WB) by TF-FVIIa with FX; assay type: biochemical; settings: clinically relevant concentrations
# T1 construct: purchased Haematologic Technologies (FX); Siemens Healthcare Diagnostics (rTF); FVIIa made in house
# T1 sequence (P00742 41-179 limits assumed): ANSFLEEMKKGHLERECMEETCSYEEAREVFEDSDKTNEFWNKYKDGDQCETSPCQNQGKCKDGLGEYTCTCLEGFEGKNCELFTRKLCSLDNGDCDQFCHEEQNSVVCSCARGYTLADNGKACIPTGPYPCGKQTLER
# T1 sequence (P00742 235-488 limits assumed): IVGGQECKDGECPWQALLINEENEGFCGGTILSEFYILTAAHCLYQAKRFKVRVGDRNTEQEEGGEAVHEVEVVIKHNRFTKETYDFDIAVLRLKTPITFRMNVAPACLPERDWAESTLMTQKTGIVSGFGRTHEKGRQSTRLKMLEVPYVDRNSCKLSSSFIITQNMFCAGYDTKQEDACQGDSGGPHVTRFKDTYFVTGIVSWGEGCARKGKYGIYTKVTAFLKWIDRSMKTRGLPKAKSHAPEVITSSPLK
# Description: (A) Phospholipid-free assay of FX (1 μM) to FXa conversion by the complex of 2 μM soluble rTF with 10 nM FVIIa WT, T99Y or E154A. (B) FXa generation by 50 pM phospholipid-reconstituted rTF with 200 pM FVIIa WT, T99Y or E154A added to 135 nM FX, 0.7 nM FVIII, 3 nM FV and 200 nM lepirudin (2 min, n=2-3; 4 min, n=4-5; 6 min, n=6-9). (C) WB (representing 2) of FVIII activation in reactions of 50 pM TF, 200 pM FVIIa WT or mutants, 0.7 nM FVIII, 3 nM FV and 200 nM lepirudin without/with 135 nM FX, incubated for 120 s at 37° C. […] (E) FXa generation measured in reactions as in (D) without TFPIα and in the presence of 10 nM FIXa (left, incubation 180 s; n=5-6 except=2 for E154A) or 90 nM FIX (right, incubation for 360 s; n=5-6). […] Differences were evaluated by the ANOVA/Tukey test; results at 4 and 6 min in (B) and in reactions with FIX in (E, right) were analyzed after transformation as y=log 10 y (**P<0.01, ***P<0.001).
# Time-course (mean±SEM) of 1 μM FX activation by 2 μM phospholipid-free soluble recombinant TF with 10 nM FVIIa WT (n=4-7), T99Y (n=2-3) or E154A mutants (n=3-4); incubation at 37° C. […] FVIIIa activity (25th-75th percentile bars, min to max whiskers, line at the median) generated as in (B), but without TFPIα, measured as FXa produced by 10 nM FIXa (n=9 for FVIIa WT and T99Y; n=5 for E154A). **P<0.01, ***P<0.001) by ANOVA/Tukey tests. […]
# thrombin generation (TG) = assay type: biochemical, human
# Description: TG in PRP or reconstituted PRP was evaluated as known to those skilled in the art. Native PRP was prepared from blood collected into final 12.9 mM trisodium citrate by centrifugation at 250 g for 10 min at 25° C. The platelet count was adjusted to 180×10^3/μl by dilution with homologous PPP obtained by centrifuging PRP for 10 min at 1,500 g. CTI was added at 30-50 μg/ml depending on calibrated potency as assessed by FXIIa inhibition. Reconstituted PRP was prepared with washed platelets prepared from normal PRP by adding ⅕th volume of acid citrate-dextrose (71 mM citric acid, 85 mM trisodium citrate, and 111 mM dextrose, pH 4.5) and 5 U/ml apyrase; following centrifugation at 1,500 g for 10 minutes at 25° C., the platelet pellet was resuspended into PPP lacking FVII (George King Bio-Medical) or FIX (Haematologic Technologies) to give a final platelet count of 180·103/μl PRP was mixed with varying concentrations of rTF and/or 20 pM FIXa in 96-well microtiter plates. The reaction was started by adding 18 mM CaCl2 with 360 μM of the thrombin substrate benzyloxycarbonyl-glycyl-glycyl-L-arginine coupled to the fluorogenic group 7-amido-4-methylcoumarin (Gly-Gly-Arg-AMC; Bachem Americas, Torrance, Calif.). Fluorescence was measured continuously at 37° C. for up to 40 min in a spectrofluorometer (355/460 nm excitation/emission). The rate of fluorescence intensity increase as a function of time (dF/dt) was calculated with Turbo Delphi 2006 (Borland Software Corporation, Austin, Tex.) and converted to thrombin-equivalent concentration (nM) using a calibration curve. The endogenous thrombin potential (ETP) of samples, i.e. total generated thrombin activity, was determined from the area under the TG curve. When specified, TG was measured with a discontinuous 2-stage assay with a detection limit of 5 pM. For this, TG was induced by 0.15 pM rTF and 18 mM CaCl2 in reconstituted FVII-deficient PRP including 30 μg/ml CTI with 400 pM WT FVIIa or iFVIIa without or with 20 pM FIXa. After incubation for up to 11 min at 37° C., reactions were terminated by adding 20 mM EDTA and generated thrombin was measured using the highly sensitive thrombin substrate H-D-CHA-Ala-Arg-AMC.2AcOH (Pefafluor TH, Pentapharm, Basel, Switzerland) at 50 μM concentration. In other experiments, TG was induced by TFiFVIIa-FXa-TFPI or TF-iFVIIa-FXa-NAPc2. These stable complexes were pre-formed by incubating 5 nM FXa, 10 nM TF, 10 nM iFVIIa and 40 nM TFPI or NAPc2 in the presence of 2.5 mM CaCl2 for 2 min at 37° C. Complexes were added into FVII-deficient PRP, followed by incubation for 8 min at 37° C.
# PRP was prepared from blood collected into trisodium citrate (final concentration 0.0129 M) by centrifugation for at 250 g for 10 min at 25° C.; the platelet count was adjusted at 180.103 per μl by diluting with homologous platelet-poor plasma (PPP) obtained by centrifuging PRP for an additional 10 min at 1,500 g. When indicated, CTI was added at 30 to 50 μg/ml depending on calibrated potency measured by FXIIa inhibition. Reconstituted PRP was prepared by adding normal washed platelets into PPP (without or with CTI) lacking FVII, FVIII (both from George King Bio-Medical, Overland Park, Kans.) or FIX (Haematologic Technologies). […] generation in PRP was measured as described by Hemker et al. 53 μl of PRP was mixed in 96-well microtiter plates with 15 μl of a solution containing rTF and/or one of the intrinsic coagulation pathway proteases—FXIIa, FXIa or FIXa—to achieve the indicated final concentrations. Antibodies or inhibitors were also added at this point at the concentration indicated for each specific case. The reaction was started by adding between 15 and 20 μl of 100 mM CaCl2 and 2 mM fluorogenic substrate, benzyloxycarbonyl-glycyl-glycyl-L-arginine-7-amido-4-methylcoumarin (Gly-Gly-Arg-AMC; Bachem Americas, Torrance, Calif.).
# FXa V17M mutant = target: T2, FXa V17M mutant (Homo sapiens, UniProt P00742, V236M); assay: FVIIIa generation by FXa V17M in stable complex with TF-iFVIIa-NAPc2; assay type: biochemical; settings: up to 5 nM rivaroxaban
# T2 construct: TF-associated FVIIa has converted FX into FXa active protease
# T2 sequence (P00742 41-179): as the sequence (P00742 41-179 limits assumed) above
# T2 sequence (P00742 235-488 V236M): as the sequence (P00742 235-488 limits assumed) above, with V2M counted along it
# [2] = target: FXa generated by Russel's viper venom (RVV) FX activator (Homo sapiens, UniProt P00742); assay: FVIII activation by FXa generated by Russel's viper venom FX activator; assay type: biochemical
# FXa generated by Russel's viper venom (RVV) FX activator, sequence (P00742 41-179 limits assumed): as the sequence (P00742 41-179 limits assumed) above
# FXa generated by Russel's viper venom (RVV) FX activator, sequence (P00742 235-488 limits assumed): as the sequence (P00742 235-488 limits assumed) above
# Description: Thrombin was quantified with a fluorogenic substrate for calculation of % inhibition. […] Reactions were initiated by 100 pM FXa with 50 pM rTF as the phospholipid surface (top); or the preformed complex of 50 pM TF, 100 pM iFVIIa, 100 pM FXa, 5 nM NAPc2 (middle); or 50 pM TF/200 pM FVIIa/135 nM FX (bottom) in mixtures of 0.7 nM FVIII, 3 nM FV, 200 nM lepirudin, 10 nM TFPI, and 2.5 mM CaCl2 incubated for 120 s at 37° C. […] Endogenous thrombin potential (ETP, right) was calculated from the area under the TG curve (n=2).
# In some experiments, prothrombin was omitted from reactions and 200 nM lepirudin was added to inactivate potentially contaminating thrombin. […] A stable complex with FXa as the only active protease was prepared with 50 pM rTF, 100 pM FVIIa-S195A (iFVIIa), 100 pM FXa and 5 nM NAPc2 incubated for 120 s at 37° C. FVIII activation by this complex was examined in reactions including FVIII, FV and lepirudin incubated for 120 s.
# nascent TF-FVIIa-FXa = target: T3, nascent TF-FVIIa-FXa (Homo sapiens, UniProt P00742); assay: FVIII activation (FVIIIa generation, WB) by nascent FXa generated by TF-FVIIa; assay type: biochemical; settings: for effect on FVIII activation by nascent FXa generated by TF-FVIIa: therapeutic concentrations, 50-450 nM
# T3 construct: purchased Haematologic Technologies (FX); Siemens Healthcare Diagnostics (rTF); FVIIa made in house
# T3 sequence (P00742 41-179 limits assumed): as the sequence (P00742 41-179 limits assumed) above
# T3 sequence (P00742 235-488 limits assumed): as the sequence (P00742 235-488 limits assumed) above
# Description: Thrombin was quantified with a fluorogenic substrate for calculation of % inhibition. […] Reactions were initiated by 100 pM FXa with 50 pM rTF as the phospholipid surface (top); or the preformed complex of 50 pM TF, 100 pM iFVIIa, 100 pM FXa, 5 nM NAPc2 (middle); or 50 pM TF/200 pM FVIIa/135 nM FX (bottom) in mixtures of 0.7 nM FVIII, 3 nM FV, 200 nM lepirudin, 10 nM TFPI, and 2.5 mM CaCl2 incubated for 120 s at 37° C. […] (n=3-4). […] Endogenous thrombin potential (ETP, right) was calculated from the area under the TG curve (n=2). Results in (E) and (F) are shown as 25th-75th percentile bars with min to max whiskers or min to max bars (when n≤3) with a line at the median. Differences were evaluated with the ANOVA/Tukey test (performed after log 10 transformation of the data shown in E); *P<0.05, ***P<0.001.
# (A) WB analysis (representing 3) of the effect of anti-FVIIa MoAbs 3G12 and 12C7 (20 μg/ml) on TF-dependent FVIIIa generation after 120 s in reactions including 50 pM TF, 200 pM FVIIa, 135 nM FX, 3.5 nM FVIII, 3 nM FV and 200 nM lepirudin; quantification as in FIG. 4E. […] Reactions contained 50 pM TF, 200 pM FVIIa, 0.7 nM FVIII, 3 nM FV, 135 nM FX, 10 nM TFPI, 200 nM lepirudin and 2.5 mM CaCl2; anti-FVIIa MoAbs or control mouse IgG were at 20 μg/ml; the function-blocking anti-FVIII MoAb 8D4 was at 8 μg/ml. (C) Effect of anti-FVIIa MoAbs 3G12 and 12C7 (20 μg/ml), without or with anti-FVIII MoAb 8D4 (8 μg/ml) or anti-FXI MoAb O1A6 (20 μg/ml), on TG in normal PRP. […] Results in (B) and (D) are shown as 25th-75th percentile bars with min to max whiskers or min to max bars (when n≤3) with a line at the median. Differences were evaluated by a two-tailed t-test with Welch correction (A) or the ANOVA/Tukey test (B and D). *P<0.05, **P<0.01, ***P<0.001.
# Coagulation reaction products were separated by reducing sodium dodecyl sulfate-polyacrylamide gel electrophoresis (SDS-PAGE), except for the analysis of FVIII activation in the presence of anti-FVIIa MoAbs that was performed under non-reducing conditions. After transfer to a polyvinylidene fluoride membrane, blots were probed with MoAb C5, biotinylated or not (0.5 μg/ml), for FVIII activation; MoAb AHV-5146 (1 μg/ml) for FV. Quantitative infrared detection of FVIIIa and FVa was obtained with IRDye 800CW-conjugated anti-mouse IgG or streptavidin followed by analysis with the Odyssey infrared imager (Li-COR, Lincoln, Nebr.). Concentrations were calculated by calibration with known quantities of FVIIIa and FVa.
# The synthetic reaction mixtures comprised 0.7 nM FVIII, 3 nM FV, 135 nM FX, 104 prothrombin in 50 mM Tris-buffered saline, pH 7.4, with 0.1% BSA. […] Reactions to prevent thrombin effects were carried out in the presence of 200 nM lepirudin or 4 μM DAPA. Reactions were initiated by adding 0.6 to 400 pM rTF, 200 to 500 pM FVIIa or/and 10 nM FIXa, followed by 2.5 mM CaCl2 and incubation at 37° C. for the indicated times. 10 mM EDTA was then added to quench the reaction. Generation of FXa, FIIa and thrombin were evaluated by measuring amidolytic activity toward the chromogenic substrate S-2765 (180 μM; N-α-benzyloxycarbonyl-D-arginyl-L-glycyl-L-arginine-p-nitroaniline; DiaPharma, West Chester, Ohio) and the fluorogenic substrate Z-Gly-Gly-Arg-AMC (360 μM) respectively.
smiles,measurement,setting,value
O=C(NC[C@H]1CN(c2ccc(N3CCOCC3=O)cc2)C(=O)O1)c1ccc(Cl)s1 [Rivaroxaban],effect on FVa generation by the ternary TF-FVIIa-FXa complex,[1],blocked
same,inhibition of TG in the presence of MoAb 12C7,thrombin generation (TG); low rivaroxaban concentrations,more pronounced inhibition
same,difference in dose response between rivaroxaban and apixaban,thrombin generation (TG); recalcified PRP containing CTI,~3 fold
same,effect on TF-induced thrombin generation,thrombin generation (TG); recalcified PRP containing CTI,inhibited
same,effect on FVIIIa generation by FXa V17M,FXa V17M mutant,insensitive
same,"FVIIIa generation, initiator RVV-X","[2]; TFPI and rivaroxaban combined, rivaroxaban as high as 450 nM",substantial inhibition
same,effect on FVIII activation by RVV-generated FXa,[2]; equivalent FXa levels as with TF-FVIIa,inhibited
same,FVIIIa generation,nascent TF-FVIIa-FXa; 500 nM rivaroxaban,sustained
same,"FVIIIa generation, coagulation initiated by FVIIa","nascent TF-FVIIa-FXa; TFPI and rivaroxaban combined, rivaroxaban as high as 450 nM, lepirudin present",substantial FVIIIa generation
same,effect on FVIII activation by nascent FXa generated by TF-FVIIa,nascent TF-FVIIa-FXa,only marginally affected
same,effect on FVIII activation by nascent FXa generated by TF-FVIIa,nascent TF-FVIIa-FXa; listed as rivaroxaban,minimally affected; also recorded: only marginally reduced
